pIC50: −log10 of the molar value.
Target: p70 S6 kinase (S6K1) (Homo sapiens, UniProt P23443)
Assay: in vitro kinase assay with recombinant S6K1, peptide substrate and […] ATP
Format: biochemical

p70 S6 kinase (S6K1), sequence (P23443 24-525): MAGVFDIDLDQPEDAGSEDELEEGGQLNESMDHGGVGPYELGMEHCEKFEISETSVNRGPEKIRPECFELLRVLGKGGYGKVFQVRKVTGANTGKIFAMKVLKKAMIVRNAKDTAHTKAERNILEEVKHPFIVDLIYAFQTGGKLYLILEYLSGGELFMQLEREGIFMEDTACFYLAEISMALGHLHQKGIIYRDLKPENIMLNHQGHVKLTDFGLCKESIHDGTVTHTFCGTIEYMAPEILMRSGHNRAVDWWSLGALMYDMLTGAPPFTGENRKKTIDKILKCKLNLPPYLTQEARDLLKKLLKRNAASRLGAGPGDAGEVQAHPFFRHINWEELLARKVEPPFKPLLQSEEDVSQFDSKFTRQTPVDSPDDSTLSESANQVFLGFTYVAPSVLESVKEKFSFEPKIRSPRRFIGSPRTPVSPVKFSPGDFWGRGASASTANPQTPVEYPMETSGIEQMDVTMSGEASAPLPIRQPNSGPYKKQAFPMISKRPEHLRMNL

| pIC50 | Compound |
| --- | --- |
| ~4.26 | Cc1oncc1C(=O)Nc1ccc(C(F)(F)F)cc1 [leflunomide] |
| ~4.10 | C/C(O)=C(\C#N)C(=O)Nc1ccc(C(F)(F)F)cc1 [A77 1726] |
